Laboratory results taken from PubChem BioAssay (NCI).
Values joined by “and” are separate entries in the source; they are usually repeats but may differ in a detail not shown here. Identical values can stand only once.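 A five-concentration, 48-hour dose response in 96-well plates underlies each endpoint, interpolated linearly between surrounding concentrations. GI50 is the concentration that inhibits growth by half. At the TGI there is no net growth.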

Legend:
Experiment in all cases: NCI tumour cell line growth inhibition, 48 h
XF 498 CNS = tested on: XF 498 CNS
SNB-78 CNS = tested on: SNB-78 CNS
HOP-18 NSCLC = tested on: HOP-18 NSCLC
HS 578T breast = tested on: HS 578T breast
RXF-631 renal = tested on: RXF-631 renal
MDA-N = tested on: MDA-N

Row | Compound | TGI (SNB-78 CNS) [µM] | TGI (HOP-18 NSCLC) [µM] | GI50 (HS 578T breast) | TGI (HS 578T breast) | other results
1 | O=C(CCC(=O)C(C(=O)c1ccccc1)c1ccccc1)Nc1cccc(C(F)(F)F)c1 (centres undefined) | > 100 | > 100 |  |  | TGI (XF 498 CNS): > 100 µM
2 | Nc1nc(-c2ccc(F)cc2)c(-c2ccc3ncccc3n2)s1 |  |  | 9.61 µM | > 25 µM | 
3 | C[C@@H](CO)[C@@H]1CCC=C2CC[C@]3(C)[C@H](CC[C@@H]4[C@@]5(C)CCCNC(C)(C)[C@@H]5CC[C@]43C)[C@H]21 |  |  | 2.08 µM | 5.19 µM | 
4 | O=[N+]([O-])c1cccc(-c2oc(C=Nc3ccccc3)c([N+](=O)[O-])c2-c2cccc([N+](=O)[O-])c2)c1 | > 100 |  |  |  | TGI (RXF-631 renal): > 100 µM
5 | Cc1occc1C(=S)Nc1ccc(Cl)c(C(=O)OC(C)C2CC2)c1 (centres undefined) |  |  |  | 69.1 µM | TGI (MDA-N): 38.4 µM
6 | CCc1cccc(C(C)C)c1N1C(=O)C(=O)C(c2nc3ccccc3s2)C(=O)C1=O | > 50 | > 50 |  |  | TGI (XF 498 CNS): > 50 µM
7 | Cc1cc(N(CCNc2ccnc3cc(Cl)ccc23)Cc2ccco2)nc(Cl)n1 |  |  | 2.43 µM | 6.28 µM | 
8 | COc1cc(OC)c(C2CC=Cc3c(OC)cc(OC)c(OC)c32)cc1OC (centres undefined) | > 100 | > 100 |  |  | TGI (XF 498 CNS): > 100 µM
9 | CCNC(=O)c1cc2c(-c3cc(C(C)(C)O)ccc3Oc3c(C)cc(F)cc3C)cn(C)c(=O)c2[nH]1 |  |  | 0.753 µM | 21.5 µM | 
10 | COc1ccc(OC)c(/C=C(/C)[N+](=O)[O-])c1 |  |  | 3.47 µM | 22.9 µM | 
11 | CCCCCCCCCCCCCP(=O)(O)OCC | > 100 | > 100 |  |  | TGI (RXF-631 renal): > 100 µM
12 | O=[N+]([O-])c1c(Br)sc(Br)c1[N+](=O)[O-] |  |  | 2.59 µM | 9.53 µM | 
13 | O=C1c2ccccc2C(=O)c2c1ccc(C1C(=O)c3ccccc3C1=O)c2-c1c(C2C(=O)c3ccccc3C2=O)ccc2c1C(=O)c1ccccc1C2=O |  |  |  | > 100 µM | TGI (MDA-N): > 100 µM
14 | NCCCNCCCCN(CCCN)/[N+]([O-])=N\O | > 100 | > 100 |  |  | TGI (RXF-631 renal): > 100 µM
15 | COC(=O)C1=C(C)NC(C)=C(C(=O)OC)C1/C=C(Cl)/C=C/c1ccccc1 |  |  | 38.4 µM | > 100 µM | 
16 | O=C(O)c1cccc(N=Nc2c(S(=O)(=O)O)ccc3c2C(=O)c2ccccc2C3=O)c1O |  |  |  | > 100 µM | TGI (MDA-N): > 100 µM
17 | O=C(/C=C/c1cc([N+](=O)[O-])ccc1Cl)c1ccccc1 |  |  | 21.2 µM | 61.7 µM | 
18 | Cc1c(COc2cc(OCc3cccc(C#N)c3)c(CN3C[C@H](O)C[C@@H]3C(=O)O)cc2Cl)cccc1-c1ccc2c(c1)OCCO2 |  |  | 21 µM | 53.1 µM | 
19 | Cc1cc(C)nc(NS(=O)(=O)c2ccc(Nc3c4ccc(Cl)cc4nc4c(C(=O)Nc5ccc(S(N)(=O)=O)cc5)cccc34)cc2)n1 | > 100 |  |  |  | TGI (XF 498 CNS): 45.6 µM; TGI (RXF-631 renal): 44.2 µM
20 | O=C1C2C3C=CC(C2C(=O)N1COP(=O)(O)O)C1C2C(=O)N(COP(=O)(O)O)C(=O)C2C31 (centres undefined) | > 100 | > 100 |  |  | TGI (XF 498 CNS): > 100 µM

Row | Compound | TGI (SNB-78 CNS) [µM] | TGI (HOP-18 NSCLC) [µM] | GI50 (HS 578T breast) | TGI (HS 578T breast) | other results
21 | COc1cc2c3c(n(CCCI)c(=O)c2cc1OC)-c1cc2c(cc1C3=O)OCO2 |  |  | > 100 µM | > 100 µM | 
22 | N#Cc1c(N)nc(N2CCOCC2)c(C#N)c1-c1cccnc1 |  |  | 66.1 µM | > 100 µM | 
23 | CC(=Nc1ccccc1)C1=C(O)C(Cc2ccccc2)NC1=O (centres undefined) |  |  | 0.0354 µM | > 100 µM | 
24 | Clc1ccc(C2SCc3nc4ccccc4n32)cc1Cl (centres undefined) | 29.1 |  |  |  | TGI (XF 498 CNS): 24.4 µM
25 | C=C(Br)N(CC)CC | > 100 | > 100 |  |  | TGI (RXF-631 renal): > 100 µM
26 | COc1cc(O)c(C(=O)/C=C/c2ccc(O)cc2)c(O)c1[C@@H]1C[C@H](CCc2ccc(O)cc2)O[C@H](c2ccc(O)cc2)C1 |  |  | 3.34 µM | 16.6 µM | 
27 | C=C1CCC2C(C)(C)CCC[C@]2(C)[C@H]1CO (some centres undefined) |  |  | > 100 µM | > 100 µM | 
28 | NC(=O)c1ccc2nc(-c3ccc(Oc4ccc(Cl)cc4)cc3)[nH]c2c1 |  |  | 24.2 µM and 16.5 µM | 75 µM and 42.6 µM | 
29 | COc1cc(/C=C/C(=O)c2ccc(NC(=O)CN3CCN(c4cc5c(cc4F)c(=O)c(C(=O)O)cn5C4CC4)CC3)cc2)cc(OC)c1OC |  |  | 16.3 µM | > 100 µM | 
30 | CCC1CCc2nc3sc(C(=O)Nc4cccc(F)c4)c(N)c3cc2C1 (centres undefined) |  |  | > 100 µM | > 100 µM | 
31 | COc1ccc2c(c1)n([O-])c1ccccc1[n+]2=O |  |  | > 100 µM and 30.4 µM | > 100 µM | TGI (MDA-N): > 100 µM
32 | S=c1cc(S)sc2c1c(=S)sc1nc3ccccn3c(=S)c12 | > 100 | > 100 |  |  | TGI (XF 498 CNS): > 100 µM
33 | O=C(Cn1ccnc1[N+](=O)[O-])c1ccc(F)cc1 |  | > 100 |  |  | TGI (XF 498 CNS): > 100 µM
34 | COc1ccc2c(c1)C(=O)c1c-2c(Nc2ccc(Cl)cc2)nc2ccccc12 |  |  | 2.58 µM | 8.82 µM | 
35 | Fc1ccccc1C1CC(c2ccc3ccccc3c2)=Nc2ccccc2S1 (centres undefined) | > 100 | > 100 |  |  | TGI (XF 498 CNS): > 100 µM
36 | CCC(=O)c1c(NOC2OC(COC(C)=O)C(OC(C)=O)C(OC(C)=O)C2OC(C)=O)nc(OC)n(C)c1=O (centres undefined) | > 100 |  |  |  | TGI (XF 498 CNS): > 100 µM; TGI (RXF-631 renal): > 100 µM
37 | Cc1ccc(S(=O)(=O)OCC23CCC(CC2)C2CC23)cc1 (centres undefined) |  | > 100 |  |  | TGI (RXF-631 renal): > 100 µM
38 | Cn1ccnc1C(=O)/C=C/c1ccccc1 |  |  | 2.39 µM | 8.6 µM | 
39 | O=C(CC1(O)C(=O)Nc2c(Cl)cc(Cl)cc21)c1cccc2ccccc12 (centres undefined) | 46.6 | 32.2 |  |  | TGI (XF 498 CNS): 34.8 µM; TGI (RXF-631 renal): 43.3 µM
40 | COc1cc(COC(=O)N(CC(=O)O)c2ccccc2)c([N+](=O)[O-])cc1OC |  |  |  | > 100 µM | TGI (MDA-N): > 100 µM
